Reference: patent publication US7897596B2, “Allosteric modulators of the A1 adenosine receptor” (King Pharmaceuticals Research & Development, Inc., priority 2006, dated 2011)

Molecular target: T1, human A1 adenosine receptors (Homo sapiens, UniProt P30542)
T1 construct: expressed in transfected cells; host or cells: CHO cells (hCHO-A1 clone)
T1 sequence (P30542 1-326): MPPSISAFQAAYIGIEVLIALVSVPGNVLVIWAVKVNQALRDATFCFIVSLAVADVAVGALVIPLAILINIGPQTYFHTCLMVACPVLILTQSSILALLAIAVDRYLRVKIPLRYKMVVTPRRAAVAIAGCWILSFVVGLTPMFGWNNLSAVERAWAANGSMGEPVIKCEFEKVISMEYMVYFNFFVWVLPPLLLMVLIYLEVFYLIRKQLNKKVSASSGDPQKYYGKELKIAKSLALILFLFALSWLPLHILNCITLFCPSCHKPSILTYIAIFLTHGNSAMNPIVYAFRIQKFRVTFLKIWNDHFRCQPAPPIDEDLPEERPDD
Experiment: Saturation binding of [3H]CCPA to hCHO-A1
Procedure: The hCHO-A1, hCHO-A2A and hCHO-A3 cell clones are grown adherently and maintained in Dulbecco's modified Eagle's medium with nutrient mixture F12, containing 10% fetal calf serum, penicillin (100 U/mL), streptomycin (100 μg/mL), L-glutamine (2 mM), geneticine (G418, 0.2 mg/mL) at 37° C. in 5% CO2/95% air (Klotz et al. Naunyn-Schmied. Arch Pharm. 1998, 357, 1-9). Cells are split two or three times weekly at a ratio of between 1:5 and 1:10. For membrane preparation the culture medium is removed. The cells are washed with PBS and scraped off T75 flasks in ice-cold hypotonic buffer (5 mM Tris HCl, 2 mM EDTA, pH 7.4). The cell suspension is homogenized with Polytron and the homogenate is spun for 10 min at 1,000×g. […] The protein concentration is determined according to a Bio-Rad method (Bradford, 1976) with bovine albumin as a standard reference.
To determine the effect of the compounds of the present invention on the binding to A1, A2A and A3 receptors, membranes from hCHO-A1, hCHO-A2A, hCHO-A3 are incubated in a buffer solution in the absence and in the presence of the examined compounds. […] Bound and free radioactivity are separated by filtering the assay mixture through Whatman GF/B glass fibre filters using a Micro-mate 196 cell harvester (Packard Instrument Company). The filter bound radioactivity was counted on Top Count Microplate Scintillation Counter (efficacy […]) with Micro 20. […]

For Nc1scc(CN2CCC3(CC2)Oc2cccc(F)c2O3)c1C(=O)c1ccc(Cl)cc1 [Example 60, {2-Amino-4-(4-fluorospiro[benzo[d][1,3]-dioxole-2,4′-piperidine]-1′-ylmethyl)thiophen-3-yl}(4-chlorophenyl)methanone], the “increase in the BMAX value of the agonist [3H]CCPA” value was “about 6 fold”.
